In patent US9999622B2, “Pyrazolothiazole compound and medicine comprising same” (NIPPON SHINYAKU CO., LTD., priority 2014, dated 2018):

Columns and labels:
Assay type in all cases: biochemical
[1] = molecular target: T1, JAK2 (Homo sapiens, UniProt O60674); assay: JAK tyrosine kinase inhibitory activity in the presence of 1 mM ATP (ELISA), JAK2
T1 construct: purchased Carna Biosciences, Inc
Procedure: (§1) 1. Preparation of Test Compound
(§2) The test compound was dissolved in dimethyl sulfoxide (DMSO) to 10 mM and further diluted with DMSO to the concentrations of 1000, 100, 10, 1, 0.1 and 0.01 μM, respectively. For JAK1, these solutions of the test compound at the six concentrations 10 mM, 1000 μM, 100 μM, 10 μM, 1 μM and 0.1 μM were used. For JAK2 and JAK3, these solutions of the test compound at the six concentrations 1000 μM, 100 μM, 10 μM, 1 μM, 0.1 μM and 0.01 μM were used. The test compound solutions were diluted further to 20-fold with an assay buffer to obtain a sample solution. 15 mM Tris-HCl (pH7.5), 0.01 (v/v) % Tween-20 and 1 mM dithiothreitol were used as an assay buffer. DMSO was diluted to 20-fold with the assay buffer and was used as a negative control.
(§3) 2. JAK Tyrosine Kinase Inhibitory Activity in the Presence of 1 mM Atp
(§4) The activity was determined by ELISA method. Each of the sample solutions was added to a streptavidine coated 96-well plate (DELFIA Strip Plate 8×12 well, PerkinElmer) at 10 μL/well (n=2). […] Finally, JAK tyrosine kinase (Carna Biosciences, Inc.), which was previously diluted with the assay buffer to 7.5 nM for JAK1 and 0.75 nM for JAK2 and JAK3, was added to the plate at 20 μL/well, and the plate was incubated at 30° C. for 1 h. The plate was washed four times with buffer (50 mM Tris-HCl (pH 7.5), 150 mM NaCl, 0.02 (v/v) % Tween-20). A blocking buffer (0.1% Bovine Serum Albumin, 50 mM Tris-HCl (pH 7.5), 150 mM NaCl, 0.02 (v/v) % Tween-20) was added to the plate at 150 μL/well and the plate was blocked at 30° C. for 1 h. The blocking buffer was removed, and a horse radish peroxidase-labeled anti-phosphorylated tyrosine antibody (BD Biosciences, Inc.) (diluted to 10000-fold with the blocking buffer) was added to the plate at 100 μL/well, and the plate was incubated at 30° C. for 30 min. The plate was washed with the washing buffer four times, and 3,3′,5,5′-tetramethylbenizidine solution (Nacalai Tesque) was added to the plate at 100 μL/well to develop the color for 10 minutes. To the plate was added 0.1 M sulfuric acid at 100 μL/well to stop the reaction. The absorbance at 450 nm was measured using a microplate reader (BIO-RAD).
(§5) 3. Analysis of the Results

[2] = molecular target: T2, JAK3 (Homo sapiens, UniProt P52333); assay: JAK tyrosine kinase inhibitory activity in the presence of 1 mM ATP (ELISA), JAK3
T2 construct: purchased Carna Biosciences, Inc
T2 sequence (P52333 1-1124): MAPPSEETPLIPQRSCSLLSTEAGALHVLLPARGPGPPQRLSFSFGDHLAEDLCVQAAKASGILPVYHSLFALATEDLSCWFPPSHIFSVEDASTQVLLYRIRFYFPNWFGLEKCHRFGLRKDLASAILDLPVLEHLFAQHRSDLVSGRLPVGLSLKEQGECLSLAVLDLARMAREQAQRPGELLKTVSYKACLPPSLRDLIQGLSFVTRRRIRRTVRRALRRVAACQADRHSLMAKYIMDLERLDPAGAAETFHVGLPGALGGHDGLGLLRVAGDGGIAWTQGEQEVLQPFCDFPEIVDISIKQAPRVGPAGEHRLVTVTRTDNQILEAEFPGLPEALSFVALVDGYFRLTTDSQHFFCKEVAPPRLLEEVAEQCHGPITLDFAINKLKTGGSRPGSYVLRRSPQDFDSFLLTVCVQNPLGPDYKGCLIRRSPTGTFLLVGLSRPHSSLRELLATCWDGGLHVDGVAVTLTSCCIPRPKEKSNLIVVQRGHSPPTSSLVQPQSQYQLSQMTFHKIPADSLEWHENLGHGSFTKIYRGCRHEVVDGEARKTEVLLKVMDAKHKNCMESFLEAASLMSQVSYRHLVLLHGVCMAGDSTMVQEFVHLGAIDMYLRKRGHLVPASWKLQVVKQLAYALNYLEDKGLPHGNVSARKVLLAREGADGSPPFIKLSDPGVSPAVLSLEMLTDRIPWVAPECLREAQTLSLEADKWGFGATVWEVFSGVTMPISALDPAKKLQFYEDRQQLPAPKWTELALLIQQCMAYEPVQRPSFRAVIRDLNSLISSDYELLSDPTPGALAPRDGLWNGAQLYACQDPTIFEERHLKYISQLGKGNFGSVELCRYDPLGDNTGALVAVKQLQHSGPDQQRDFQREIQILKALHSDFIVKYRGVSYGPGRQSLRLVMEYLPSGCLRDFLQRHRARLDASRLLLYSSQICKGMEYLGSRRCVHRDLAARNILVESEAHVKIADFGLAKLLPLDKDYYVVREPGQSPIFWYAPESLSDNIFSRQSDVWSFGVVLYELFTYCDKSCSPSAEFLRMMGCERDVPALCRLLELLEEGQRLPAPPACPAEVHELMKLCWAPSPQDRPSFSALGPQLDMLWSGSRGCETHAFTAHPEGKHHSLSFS
Procedure: as §1, §2, §3, §4, §5

[3] = molecular target: T3, JAK1 (Homo sapiens, UniProt P23458); assay: JAK tyrosine kinase inhibitory activity in the presence of 1 mM ATP (ELISA), JAK1
T3 construct: purchased Carna Biosciences, Inc
Procedure: as §1, §2, §3, §4, §5

T3 sequence (P23458 whole entry): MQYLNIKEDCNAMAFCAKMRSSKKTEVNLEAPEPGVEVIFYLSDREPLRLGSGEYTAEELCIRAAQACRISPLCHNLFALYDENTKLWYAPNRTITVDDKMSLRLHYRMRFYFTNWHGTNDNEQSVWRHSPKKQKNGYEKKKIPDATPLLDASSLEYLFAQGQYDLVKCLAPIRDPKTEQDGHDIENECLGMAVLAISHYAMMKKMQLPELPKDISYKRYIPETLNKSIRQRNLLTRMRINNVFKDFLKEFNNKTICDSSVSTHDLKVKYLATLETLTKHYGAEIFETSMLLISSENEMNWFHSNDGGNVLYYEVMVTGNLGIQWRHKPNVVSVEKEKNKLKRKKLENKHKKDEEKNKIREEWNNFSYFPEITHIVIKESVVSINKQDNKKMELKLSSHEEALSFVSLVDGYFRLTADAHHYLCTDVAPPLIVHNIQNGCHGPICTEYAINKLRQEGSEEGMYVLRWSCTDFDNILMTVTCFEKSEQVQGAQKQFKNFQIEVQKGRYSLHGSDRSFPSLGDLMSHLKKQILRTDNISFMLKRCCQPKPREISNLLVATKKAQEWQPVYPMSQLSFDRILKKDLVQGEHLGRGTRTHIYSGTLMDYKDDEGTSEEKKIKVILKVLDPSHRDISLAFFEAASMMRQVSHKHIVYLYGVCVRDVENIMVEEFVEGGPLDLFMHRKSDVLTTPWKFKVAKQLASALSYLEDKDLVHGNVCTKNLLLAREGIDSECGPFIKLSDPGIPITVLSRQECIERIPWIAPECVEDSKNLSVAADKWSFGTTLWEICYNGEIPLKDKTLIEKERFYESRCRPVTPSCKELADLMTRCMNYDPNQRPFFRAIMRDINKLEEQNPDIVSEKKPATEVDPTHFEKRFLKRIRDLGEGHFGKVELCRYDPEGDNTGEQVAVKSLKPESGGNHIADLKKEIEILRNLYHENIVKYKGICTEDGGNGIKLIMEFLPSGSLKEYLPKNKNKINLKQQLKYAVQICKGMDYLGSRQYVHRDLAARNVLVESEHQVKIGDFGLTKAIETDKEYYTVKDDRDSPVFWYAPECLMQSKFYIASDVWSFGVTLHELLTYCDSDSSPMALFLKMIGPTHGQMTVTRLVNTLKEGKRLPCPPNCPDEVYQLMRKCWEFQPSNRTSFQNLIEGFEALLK
T1 sequence (O60674 whole entry): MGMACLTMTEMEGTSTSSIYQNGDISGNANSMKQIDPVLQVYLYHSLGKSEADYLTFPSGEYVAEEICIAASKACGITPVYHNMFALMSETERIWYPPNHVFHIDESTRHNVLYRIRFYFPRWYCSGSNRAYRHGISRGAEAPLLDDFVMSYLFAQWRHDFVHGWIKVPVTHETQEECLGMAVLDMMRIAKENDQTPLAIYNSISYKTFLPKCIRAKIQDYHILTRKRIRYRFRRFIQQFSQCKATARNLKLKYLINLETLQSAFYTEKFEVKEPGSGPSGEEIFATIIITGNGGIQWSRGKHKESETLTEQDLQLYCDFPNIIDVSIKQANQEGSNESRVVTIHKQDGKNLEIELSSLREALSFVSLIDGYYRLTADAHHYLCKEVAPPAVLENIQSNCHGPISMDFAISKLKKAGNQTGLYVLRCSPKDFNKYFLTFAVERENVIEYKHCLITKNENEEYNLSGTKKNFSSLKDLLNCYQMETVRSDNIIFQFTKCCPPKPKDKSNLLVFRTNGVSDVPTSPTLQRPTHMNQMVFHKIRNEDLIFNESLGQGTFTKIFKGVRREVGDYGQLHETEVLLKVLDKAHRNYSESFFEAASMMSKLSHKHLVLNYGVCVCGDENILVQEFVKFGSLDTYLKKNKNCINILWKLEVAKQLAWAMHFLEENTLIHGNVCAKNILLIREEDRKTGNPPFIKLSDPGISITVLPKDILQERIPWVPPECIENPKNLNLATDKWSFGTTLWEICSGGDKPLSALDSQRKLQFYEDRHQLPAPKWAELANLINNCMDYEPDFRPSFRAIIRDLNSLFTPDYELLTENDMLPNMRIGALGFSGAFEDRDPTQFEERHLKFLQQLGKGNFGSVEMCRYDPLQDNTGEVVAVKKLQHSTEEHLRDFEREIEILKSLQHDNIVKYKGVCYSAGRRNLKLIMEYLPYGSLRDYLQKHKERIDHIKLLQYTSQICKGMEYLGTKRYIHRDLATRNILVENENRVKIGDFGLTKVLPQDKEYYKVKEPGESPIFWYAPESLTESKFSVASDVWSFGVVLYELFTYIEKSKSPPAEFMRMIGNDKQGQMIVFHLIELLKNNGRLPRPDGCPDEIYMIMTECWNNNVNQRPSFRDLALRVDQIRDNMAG

Row | IC50 [1] [nM] | IC50 [2] [nM] | IC50 [3] [nM] | Structure (SMILES)
1 | 2500 | 7200 | 110 | CC(C)(C)CNc1cc(C(=O)N2CCC(NC(=O)C3CC3)CC2)nc(-c2cnn3ccsc23)n1 [Example 15, N-[1-({6-[(2,2-Dimethylpropyl)amino]-2-(pyrazolo[5,1-b][1,3]thiazol-7-yl)pyrimidin-4-yl}carbonyl)piperidin-4-yl]cyclopropanecarboxamide]
2 | 5100 | 5800 | 230 | C[C@@H](COC(F)F)Nc1cc(C(=O)N2CCC(NC(=O)C3CC3)CC2)nc(-c2cnn3ccsc23)n1 [Example 17, N-(1-{[6-{[(2S)-1-(Difluoromethoxy)propan-2-yl]amino}-2-(pyrazolo[5,1-b][1,3]thiazol-7-yl)pyrimidin-4-yl]carbonyl}piperidin-4-yl)cyclopropanecarboxamide]
3 | 2300 | 1700 | 310 | Cc1c(N[C@@H](C)C2CC2)nc(-c2cnn3ccsc23)nc1C(=O)N1CCC(NC(=O)C(F)F)CC1 [Example 18, N-(1-{[6-{[(1S)-1-Cyclopropylethyl]amino}-5-methyl-2-(pyrazolo[5,1-b][1,3]thiazol-7-yl)pyrimidin-4-yl]carbonyl}piperidin-4-yl)-2,2-difluoroacetamide]
4 | 4400 | 6500 | 710 | CO[C@H]1CCC[C@@H]1Nc1cc(C(=O)N2CCC(NC(=O)C3CC3)CC2)nc(-c2cnn3ccsc23)n1 [Example 19, N-(1-{[6-{[(1S,2S)-2-Methoxycyclopentyl]amino}-2-(pyrazolo[5,1-b][1,3]thiazol-7-yl)pyrimidin-4-yl]carbonyl}piperidin-4-yl)cyclopropanecarboxamide]
5 | 1200 | 3000 | 140 | CC(C)OC(=O)NC1CCN(C(=O)c2cc(N[C@H](C)C(C)(C)C)nc(-c3cnn4ccsc34)n2)CC1 [Example 29, Propan-2-yl (1-{[6-{[(2R)-3,3-dimethylbutan-2-yl]amino}-2-(pyrazolo[5,1-b][1,3]thiazol-7-yl)pyrimidin-4-yl]carbonyl}piperidin-4-yl)carbamate]
6 | 1400 | > 10000 | 110 | C[C@H](Nc1cc(C(=O)N2CCC(NC(=O)c3ccccc3)CC2)nc(-c2cnn3ccsc23)n1)C1CC1 [Example 30, N-(1-{[6-{[(1S)-1-Cyclopropylethyl]amino}-2-(pyrazolo[5,1-b][1,3]thiazol-7-yl)pyrimidin-4-yl]carbonyl}piperidin-4-yl)benzamide]
7 | 1800 | > 10000 | 380 | C[C@H](Nc1cc(C(=O)N2CCC(NC(=O)c3cccs3)CC2)nc(-c2cnn3ccsc23)n1)C1CC1 [Example 32, N-(1-{[6-{[(1S)-1-Cyclopropylethyl]amino}-2-(pyrazolo[5,1-b][1,3]thiazol-7-yl)pyrimidin-4-yl]carbonyl}piperidin-4-yl)thiophene-2-carboxamide]
8 | 1900 | 3000 | 350 | C[C@H](Nc1cc(C(=O)N2CCC(NC(=O)NC3CC3)CC2)nc(-c2cnn3ccsc23)n1)C1CC1 [Example 34, 1-Cyclopropyl-3-(1-{[6-{[(1S)-1-cyclopropylethyl]amino}-2-(pyrazolo[5,1-b][1,3]thiazol-7-yl)pyrimidin-4-yl]carbonyl}piperidin-4-yl)urea]
9 | 2400 | > 10000 | 270 | C[C@@H](C1CC1)N(C)c1cc(C(=O)N2CCC(Nc3ncccn3)CC2)nc(-c2cnn3ccsc23)n1 [Example 35, [6-{[(1S)-1-Cyclopropylethyl](methyl)amino}-2-(pyrazolo[5,1-b][1,3]thiazol-7-yl)pyrimidin-4-yl][4-(pyrimidin-2-ylamino)piperidin-1-yl]methanone]
10 | 620 | > 10000 | 86 | CC(C)(C)Nc1cc(C(=O)N2CCC(NC(=O)C3CC3)CC2)nc(-c2cnn3ccsc23)n1 [Example 36, N-(1-{[6-(tert-Butylamino)-2-(pyrazolo[5,1-b][1,3]thiazol-7-yl)pyrimidin-4-yl]carbonyl}piperidin-4-yl)cyclopropanecarboxamide]
11 | 1600 | > 10000 | 240 | CC1(Nc2cc(C(=O)N3CCC(NC(=O)C4CC4)CC3)nc(-c3cnn4ccsc34)n2)CC1 [Example 37, N-[1-({6-[(1-Methylcyclopropyl)amino] 2 (pyrazolo[5,1-b][1,3]thiazol-7-yl)pyrimidin-4-yl}carbonyl)piperidin-4-yl]cyclopropanecarboxamide]
12 | 1200 | > 10000 | 260 | COCC(C)(C)Nc1cc(C(=O)N2CCC(NC(=O)C3CC3)CC2)nc(-c2cnn3ccsc23)n1 [Example 38, N-[1-({6-[(1-Methoxy-2-methylpropan-2-yl)amino]-2-(pyrazolo[5,1-b][1,3]thiazol-7-yl)pyrimidin-4-yl}carbonyl)piperidin-4-yl]cyclopropanecarboxamide]
13 | 1300 | 2900 | 140 | COC(=O)NC1CCN(C(=O)c2cc(N[C@H](C)C(C)(C)C)nc(-c3cnn4ccsc34)n2)CC1 [Example 39, Methyl (1-{[6-{[(2R)-3,3-dimethylbutan-2-yl]amino}-2-(pyrazolo[5,1-b][1,3]thiazol-7-yl)pyrimidin-4-yl]carbonyl}piperidin-4-yl)carbamate]
14 | > 10000 | > 10000 | 130 | O=C(NC1CCN(C(=O)c2cc(OCC3CC3)nc(-c3cnn4ccsc34)n2)CC1)C1CC1 [Example 43, N-(1-{[6-(Cyclopropylmethoxy)-2-(pyrazolo[5,1-b][1,3]thiazol-7-yl)pyrimidin-4-yl]carbonyl}piperidin-4-yl)cyclopropanecarboxamide]
15 | 1300 | > 10000 | 66 | CC(Oc1cc(C(=O)N2CCC(NC(=O)C3CC3)CC2)nc(-c2cnn3ccsc23)n1)C(C)(C)C (stereo not drawn) [Example 44, N-[1-({6-[(3,3-Dimethylbutan 2 yl)oxy]-2-(pyrazolo[5,1-b][1,3]thiazol-7-yl)pyrimidin-4-yl}carbonyl)piperidin-4-yl]cyclopropanecarboxamide]
16 | 5700 | > 10000 | 310 | O=C(NC1CCN(C(=O)c2cc(OC3CCC3)nc(-c3cnn4ccsc34)n2)CC1)C1CC1 [Example 45, N-(1-{[6-(Cyclobutyloxy)-2-(pyrazolo[5,1-b][1,3]thiazol-7-yl)pyrimidin-4-yl]carbonyl}piperidin-4-yl)cyclopropanecarboxamide]
